# Experimental data published in patent US20250276996A1, “CATIONICALLY-ENFRAMED HIGH DENSITY AROMATIC PEPTIDES” (Research Foundation of the City University of New York, priority 2022, published 2025).
# “Also recorded” adds a separate entry of the source. Non-standard residues stand in square brackets, D forms with d. Residues, ends and D or L forms follow the SMILES beside them. *: point of attachment. Biotin = O=C1N[C@H]2[C@H](CS[C@H]2CCCCC(=O)*)N1
# Tests used:
# [1] = tested on: MDBK cells; assay: Uptake and intracellular localization of biotin-HDAP2 (streptavidin staining); format: cell-based, bovine; details: for cellular uptake and intracellular localization: 37° C., up to 1 h
# Method: (§1) Biotin-HDAP2 was studied using Madin-Darby Bovine Kidney Epithelial cell line (MDBK). Monolayers of cells were grown on 6-well plates for 3 days. On day 4, cells were washed twice with pre-warmed DMEM, and then incubated with 0.2 ml of DMEM containing 10 μM biotin-HDAP2 at 37° C. for up to 1 h. Cells were then washed and fixed in 4% paraformaldehyde and biotin-HDAP2 was detected using Alexa FLUOR™ 488 streptavidin. Cells were also co-stained with MitoTracker-Red or DAPI to identify cytoplasmic compartment or nuclei, respectively. Cells were then visualized in a fluorescent microscope (Nikon Eclipse-ci-SRS).
# as §1, with “MitoTracker-Red” for “MitoTracker-Red or DAPI”, “identify mitochondria.” for “identify cytoplasmic compartment or nuclei, respectively.”, “visualized using” for “visualized in”
# Biotin-HDAP2 uptake: To assess uptake of biotin-HDAP2 into cells, cultures were incubated in serum-free media for three days to deplete endogenous biotin (Birk et al., 2013) and then treated with biotin-HDAP2 (1 μM) for one hour. Cells were fixed with 4% paraformaldehyde and incubated for one hour with Alexa Fluor 594 conjugated streptavidin (1:100, Jackson ImmunoResearch) to localize the peptide within the cells, Hoechst 33342 (10 μg/ml, Novus) to label nuclei, and Mito Tracker Red CMXRos (MTR; 50 nM, Invitrogen) to identify mitochondria; MTR binds to thiol groups, which are heavily concentrated in the mitochondrial matrix. Cells were rinsed and imaged immediately in the dish using a Nikon Eclipse 50i fluorescent microscope with a 40× immersion objective (NA 0.8).
# Intracellular Localization of biotin-HDAP2: Intracellular targeting of biotin-HDAP2 was determined by incubating MDBK cells (ATCC-CCL22) that were grown in biotin-free media for 72 hours, with 10 μM of N-biotinylated biotin-HDAP2 for 1 hour. Cells were then fixed with 4% paraformaldehyde, permeabilized with 0.1% Triton X-100, and treated with streptavidin conjugated with Alexa Fluor 488 (SA) for 30 minutes at room temperature. […]
# SA fluorescence was normalized to Hoechst fluorescence to account for differences in cell number in each field. The intensity of SA fluorescence was measured in each field, using the “Analyze” feature in ImageJ to compute the mean pixel intensity (in arbitrary fluorescence units) from the images. […]
# [2] = tested on: MDBK cells; assay: Serum starvation cell death, methylene blue staining; format: cell-based, bovine; details: serum-free media 5-7 days, read-out: EC50, prevention of cell death
# Method: MDBK cells were incubated in serum-free media for 5-7 days in the presence or absence of different concentrations of biotin-HDAP2. At the end of the incubation period, media was removed, the cells were fixed in 4% PFA and then stained with Methylene Blue Loeffler for 30 minutes. Images were obtained using a Tiffen Zoom Camera, interfaced with PC Image, and analyzed using ImageJ NIH software. Experiments were conducted 5 times in triplicates for each experimental condition. Biotin-HDAP2 prevented cell death in a dose-dependent manner with EC50 of about 300 nM (FIG. 4).
# [3] = tested on: HK-2 cells; assay: PCNA expression in serum-starved cells; format: cell-based; details: serum starved for 3 days
# Excerpt: FIG. 18B are representative images of HK-2 cells serum starved for 3 days in the presence or absence of biotin-HDAP2 (SEQ ID NO: 1), HDAP4 (SEQ ID NO: 13), and biotin-HDAP6 (SEQ ID NO: 10) and then tested for the expression of Proliferating Cell Nuclear Antigen (PCNA) (bottom row), a positive marker for cell proliferation. The Hoechst 33342 probe (Hc) was used to label the nucleus to determine cellular localization (top row).
# [4] = tested on: mice; details: 3 mg/kg daily for 14 days or biweekly for two months
smiles,measurement,setting,value
"N=C(N)NCCC[C@@H](NC(=O)[C@H](Cc1ccccc1)NC(=O)[C@H](Cc1ccccc1)NC(=O)[C@@H](CCCNC(=N)N)NC(=O)CCCC[C@@H]1SC[C@@H]2NC(=O)N[C@@H]21)C(N)=O [biotin-HDAP2, Biotin-dArg-Phe-Phe-dArg-NH2] (Biotin-[dR]FF[dR]-NH2)",cellular uptake and intracellular localization,[1]; 10 μM,targets mitochondria; also recorded: penetrates cell membranes
same,cellular uptake and intracellular localization,"[1]; 10 μM, listed as Biotin-HDAP2",primarily localized to the cytoplasmic compartment; also recorded: taken into mitochondria; also recorded: co-localized with MitoTracker-Red
same,speed of entry into the cell compared with biocytin,"[1]; 10 μM, 1 hour, serum-starved MDBK cells",about 6 times
same,level of biotin-HDAP2 in cells relative to endogenous biotin,"[1]; MDBK cells, streptavidin AF 488",> 10 ×
same,EC50,[2],~300 nM
same,expression of PCNA and cell proliferation,[3],increase proliferation expression of PCNA and cell proliferation during serum starvation
same,toxicity in mice,[4],no adverse effects
